Results published in US20100298141A1, “SUBSTITUTED PYRIDINE N-OXIDE HERBICIDES” (E. I. DU PONT DE NEMOURS AND COMPANY, priority 2007, published 2010).

Tests used:
[1] = test system: redroot pigweed; assay: Test A pre-/postemergence greenhouse test; format: in vivo, Amaranthus retroflexus; conditions: for Plant response rating, Pigweed: 0 to 100 scale where 0 is no effect and 100 is complete control; for Pigweed plant response rating: 0 to 100 scale
Method in brief: (§1)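 Visual injury ratings, made relative to untreated controls roughly ten days after treatment, cover both preemergence and postemergence application. Compounds in a surfactant-containing non-phytotoxic solvent were sprayed onto the soil surface after sowing and, simultaneously, onto young plants at the one- to two-leaf stage.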

[2] = test system: velvetleaf; assay: Test A pre-/postemergence greenhouse test; format: in vivo, Abutilon theophrasti; conditions: for Plant response rating, Velvetleaf: 0 to 100 scale where 0 is no effect and 100 is complete control; for Velvetleaf plant response rating: 0 to 100 scale
Method in brief: as §1

[3] = test system: wheat; assay: Test A pre-/postemergence greenhouse test; format: in vivo, Triticum aestivum; conditions: for Plant response rating, Wheat: 0 to 100 scale where 0 is no effect and 100 is complete control; for Wheat plant response rating: 0 to 100 scale
Method in brief: as §1

[4] = test system: downy brome; assay: Test C pre-/postemergence test; format: in vivo, Bromus tectorum
Method in brief: (§2)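 Compounds in a non-phytotoxic solvent with surfactant applied preemergence to seeded pots and, at the same time, postemergence to plants 2–18 cm tall (1- to 4-leaf stage). Paddy tests: pots flooded to 3 cm, compound applied into the water, depth held throughout.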

[5] = test system: wheat; assay: Test C pre-/postemergence test; format: in vivo, Triticum aestivum
Method in brief: as §2

[6] = test system: wild oat; assay: Test C pre-/postemergence test; format: in vivo, Avena fatua
Method in brief: as §2

[7] = test system: catchweed bedstraw; assay: Test C pre-/postemergence test; format: in vivo, Galium aparine
Method in brief: as §2

[8] = test system: corn; assay: Test C pre-/postemergence test; format: in vivo, Zea mays
Method in brief: as §2

[9] = test system: woolly cupgrass; assay: Test C pre-/postemergence test; format: in vivo, Eriochloa villosa
Method in brief: as §2

[10] = test system: giant foxtail; assay: Test C pre-/postemergence test; format: in vivo, Setaria faberii
Method in brief: as §2

[11] = test system: johnsongrass; assay: Test C pre-/postemergence test; format: in vivo, Sorghum halepense
Method in brief: as §2

[12] = test system: morningglory; assay: Test C pre-/postemergence test; format: in vivo, Ipomoea coccinea
Method in brief: as §2

[13] = test system: eastern black nightshade; assay: Test C pre-/postemergence test; format: in vivo, Solanum ptycanthum
Method in brief: as §2

[14] = test system: yellow nutsedge; assay: Test C pre-/postemergence test; format: in vivo, Cyperus esculentus
Method in brief: as §2

[15] = test system: velvetleaf; assay: Test C pre-/postemergence test; format: in vivo, Abutilon theophrasti
Method in brief: as §2

[16] = test system: rice; assay: Test C flooded paddy test; format: in vivo, Oryza sativa; conditions: Flood
Method in brief: (§3)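 Ratings were visual and made relative to untreated controls after 13 to 15 greenhouse days.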

[17] = test system: duck salad; assay: Test C flooded paddy test; format: in vivo, Heteranthera limosa; conditions: Flood
Method in brief: as §3

[18] = Postemergence, 500 g ai/ha, 0 is no effect, 100 is complete control
[19] = Preemergence, 125 g ai/ha, 0 no effect, 100 complete control
[20] = 62 g ai/ha, Preemergence, scale 0 to 100
[21] = 125 g ai/ha, preemergence, scale 0 (no effect) to 100 (complete control)
[22] = Preemergence, 31 g ai/ha, scale 0 to 100 (0 no effect, 100 complete control)
[23] = preemergence, 250 g ai/ha, scale 0 (no effect) to 100 (complete control)
[24] = 62 g ai/ha, scale 0 to 100 (0 no effect, 100 complete control)
[25] = 250 g ai/ha, scale 0 to 100, 0 no effect, 100 complete control, 13 to 15 days

Cn1nc(C(F)(F)F)c(C[S+]([O-])c2cccc[n+]2[O-])c1OCC(F)F (stereo not shown) [Compound 75]
0: Plant response rating, Wheat [5, 22] | Plant response rating, Oat, Wild [6, 22] | Plant response rating, Nightshade [13, 22] | Plant response rating, Nutsedge, Yellow [14, 22] | Plant response rating, Rice [16, 24]
98: Corn plant response rating [8, 23] | Nightshade plant response rating [13, 20]
100: Pigweed plant response rating [1, 18] | Plant response rating, Pigweed ([1]; Preemergence, 500 g ai/ha) | Plant response rating, Velvetleaf ([2]; Preemergence, 500 g ai/ha) | Plant response rating, Wheat ([3]; Preemergence, 500 g ai/ha) | Galium plant response rating [7, 20] | Galium plant response rating [7, 21] | Galium plant response rating [7, 23] | Cupgrass, Woolly plant response rating [9, 21] | Cupgrass, Woolly plant response rating [9, 23] | Foxtail, Giant plant response rating [10, 21] | Foxtail, Giant plant response rating [10, 23] | Johnsongrass plant response rating [11, 21] | Johnsongrass plant response rating [11, 23] | Morningglory plant response rating [12, 20] | Morningglory plant response rating [12, 21] | Morningglory plant response rating [12, 23] | Nightshade plant response rating [13, 21] | Nightshade plant response rating [13, 23] | Nutsedge, Yellow plant response rating [14, 23] | Velvetleaf plant response rating [15, 20] | Velvetleaf plant response rating [15, 21] | Plant response rating, Velvetleaf [15, 22] | Velvetleaf plant response rating [15, 23]
85: Bromegrass, Downy plant response rating [4, 21] | Cupgrass, Woolly plant response rating [9, 20] | Plant response rating, Cupgrass, Woolly [9, 22] | Foxtail, Giant plant response rating [10, 20] | Johnsongrass plant response rating [11, 20] | Plant response rating, Ducksalad [17, 25]
95: Wheat plant response rating [5, 23] | Corn plant response rating [8, 21]
80: Pigweed plant response rating [1, 19] | Velvetleaf plant response rating [2, 18] | Oat, Wild plant response rating [6, 23] | Plant response rating, Galium [7, 22] | Plant response rating, Foxtail, Giant [10, 22]
60: Velvetleaf plant response rating [2, 19] | Wheat plant response rating [5, 21] | Corn plant response rating [8, 20] | Plant response rating, Corn [8, 22] | Plant response rating, Rice [16, 25]
90: Bromegrass, Downy plant response rating [4, 23]
70: Plant response rating, Pigweed ([1]; Postemergence, 125 g ai/ha) | Wheat plant response rating [3, 18] | Wheat plant response rating [3, 19] | Oat, Wild plant response rating [6, 21] | Nutsedge, Yellow plant response rating [14, 21]
50: Plant response rating, Wheat ([3]; Postemergence, 125 g ai/ha) | Bromegrass, Downy plant response rating [4, 20] | Plant response rating, Johnsongrass [11, 22] | Nutsedge, Yellow plant response rating [14, 20]
40: Plant response rating, Velvetleaf ([2]; Postemergence, 125 g ai/ha) | Plant response rating, Bromegrass, Downy [4, 22] | Oat, Wild plant response rating [6, 20] | Plant response rating, Ducksalad [17, 24]
30: Wheat plant response rating [5, 20] | Plant response rating, Morningglory [12, 22]
